In paper PMC7170330 (Journal of Enzyme Inhibition and Medicinal Chemistry, 2020):
Where “and” joins values, the source holds several entries; their conditions need not be identical. Equal values may be shown once. Read-outs that look alike come from different tables or passages of the source.

Legend:
[1] = DPPH free radical scavenging activity; details: 0.05 mg/mL; mean ± SD, n = 3
Method: The free radical scavenging activity of standard antioxidants and synthesised sulphonamide derivatives was measured by DPPH using the Blois method[49]^,[50] 0.1 mM solution of DPPH^• in ethanol was prepared and 1 ml of this solution was added to 3 ml of the samples solution in ethanol at different concentrations. These solutions were vortexed thoroughly and kept in the darkness for 30 min. The absorbance values of this final mixture were measured at 517 nm. The reduced absorbance of the reaction mixture indicates higher free radical scavenging activity.
(§1) ABTS^•+ scavenging activity assay was performed according to Re method[51]^,[52]. The process of ABTS^•+ (2.0 mM) in water with potassium persulfate (K2S2O8) (2.45 mM) at room temperature in dark for 4 h. gave the ABTS cation radical. Dilution of ABTS^•+ was applied with sodium phosphate buffer (Na3PO4) (0.1 mol/l, pH 7.4) to measure the absorbance at 734 nm. The reactions of ABTS^•+ solution (1.0 ml) with samples solution in ethanol at different concentrations were performed. The inhibition was calculated at 734 nm for each concentration. The DPPH^• and ABTS^•+ free radical scavenging ability was calculated as the following equation: Radical scavenging activity (%) = [(Ac – As)/Ac] × 100. Where, Ac is the absorbance value of DPPH^• and ABTS^•+ before sample addition, while as is the absorbance value after sample addition.

[2] = Cupric ion reducing assay (CUPRAC); details: 0.2 mg/mL; mean ± SD, n = 3
Method: The reduction capacity for cupric ions (Cu^2+) was determined by Cupric Ions Reducing Assay (CUPRAC) assay as previously described[47]^,[48]. A volume of 0.25 ml neocuproine (7.5 mM) in ethanol, 0.25 ml NH4Ac (1 M) and 0.25 ml CuCl2 (0.01 M) was mixed with sample at different amounts and standards.

[3] = Fe3+ reducing power (FRAP, modified Oyaizu method); details: 0.2 mg/mL; 700 nm; mean ± SD, n = 3
Method: The power by metal-reducing of novel synthesised sulphonamide derivatives were determined by modified Oyaizu method[45]^,[46]. Different amounts of derivatives in 1 ml of ethanol were mixed with 0.5 ml of phosphate buffer (0.2 M, pH 6.6) and 0.5 ml of 1% potassium ferricyanide (K3Fe(CN)6). After the mixtures were incubated at 50 °C for 20 min, trichloroacetic acid (0.5 ml, 10%) was added to each mixture and centrifuged (at 1,008 G for 10 min.). The upper layers of the resulting solutions (0.5 ml) were first mixed with distilled water (0.5 ml) and then FeCl3 (0.1 ml, 0.1%) in the given order. absorbances were measured at 700 nm.

[4] = ABTS radical cation scavenging activity; details: 0.2 mg/mL; mean ± SD, n = 3
Method: as §1

hCA II = hCA II (Homo sapiens, UniProt P00918); experiment: hCA II esterase activity inhibition (p-nitrophenylacetate); assay type: biochemical; details: for Ki: esterase activity, p-nitrophenylacetate substrate, Lineweaver-Burk, mean ± SD; for Selectivity index KI (hCA II/hCA I): ratio of KI values
hCA I = hCA I (Homo sapiens, UniProt P00915); experiment: biochemical; details: esterase activity, p-nitrophenylacetate substrate, Lineweaver-Burk, mean ± SD
AChE = biological target: T1, AChE (Electrophorus electricus, UniProt O42275); experiment: biochemical; details: electric eel AChE, acetylthiocholine iodide/DTNB, 412 nm, mean ± SD
T1 construct: AChE activity isolated from electric eel (purchased); purchased; host or cells: isolated from electric eel
T1 sequence (O42275 24-633): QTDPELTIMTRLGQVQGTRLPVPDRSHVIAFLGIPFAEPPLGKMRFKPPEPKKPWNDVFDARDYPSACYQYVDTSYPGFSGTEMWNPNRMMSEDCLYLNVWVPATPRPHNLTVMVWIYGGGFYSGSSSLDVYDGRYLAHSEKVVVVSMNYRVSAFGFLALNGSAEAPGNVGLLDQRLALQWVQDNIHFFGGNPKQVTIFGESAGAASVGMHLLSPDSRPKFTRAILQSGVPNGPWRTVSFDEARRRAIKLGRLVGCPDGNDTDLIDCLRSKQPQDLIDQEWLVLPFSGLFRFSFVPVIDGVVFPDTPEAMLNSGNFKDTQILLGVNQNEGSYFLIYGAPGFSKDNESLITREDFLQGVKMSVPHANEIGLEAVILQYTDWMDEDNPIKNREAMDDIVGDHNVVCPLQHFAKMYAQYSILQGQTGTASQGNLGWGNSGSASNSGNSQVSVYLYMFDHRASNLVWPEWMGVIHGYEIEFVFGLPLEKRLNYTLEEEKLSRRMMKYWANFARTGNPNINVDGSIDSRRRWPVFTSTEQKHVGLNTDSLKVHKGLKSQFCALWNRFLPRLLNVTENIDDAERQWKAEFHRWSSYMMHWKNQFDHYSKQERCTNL
Method: AChE activity isolated from electric eel (purchased) was performed by a modified version of the Ellman method[63]. The measurement of AChE activity was performed using Acetylthiocholine (ATChI) iodide as the substrates and 5,5-Dithiobis(2-nitrobenzoic) acid (DTNB)[64]. The ATChI iodide as the substrates was monitored spectrophotometrically at 412 nm as in our previous assays[65]^,[66].

Sequence of hCA I (P00915 whole entry): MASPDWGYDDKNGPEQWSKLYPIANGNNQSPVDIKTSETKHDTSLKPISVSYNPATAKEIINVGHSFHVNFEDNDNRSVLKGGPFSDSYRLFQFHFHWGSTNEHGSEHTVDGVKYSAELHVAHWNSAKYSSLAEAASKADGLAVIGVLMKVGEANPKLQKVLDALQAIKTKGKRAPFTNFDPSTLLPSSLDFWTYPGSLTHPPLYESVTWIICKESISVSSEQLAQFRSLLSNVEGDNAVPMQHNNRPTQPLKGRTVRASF

Row | SMILES | DPPH radical scavenging activity [1] [%] | Cu2+ reducing ability [2] [absorbance] | Fe3+ reducing ability [3] [absorbance] | ABTS radical scavenging activity [4] [%] | Ki (hCA II; read-out: KI hCA II) | Selectivity index KI (hCA II/hCA I) (hCA II) | Ki (hCA I; read-out: KI hCA I) | Ki (AChE; read-out: KI AChE) [µM] | Ki (hCA II; KI hCA II) [µM] | Ki (AChE; KI AChE) [µM] | Ki (hCA I; KI hCA I) [µM]
1 | COc1ccc(O)c(C(C)(C)C)c1 [BHA, butylated hydroxyanisole, reference compound] | 21.7 ± 1.9 | 2.28 ± 0.13 | 1.23 ± 0.20 | 79.5 ± 6.1 | – | – | – | – | – | – | –
2 | Cc1cc(C(C)(C)C)c(O)c(C(C)(C)C)c1 [BHT, butylated hydroxytoluene, reference compound] | 47.0 ± 5.2 | 2.00 ± 0.11 | 0.67 ± 0.01 | 98.9 ± 9.1 | – | – | – | – | – | – | –
3 | NS(=O)(=O)c1cccc(N=Cc2cccc(Br)c2O)c1 [Compound 1, 3-((3-Bromo-2-hydroxybenzylidene)amino)benzenesulfonamide] | 18.7 ± 1.5 | 0.22 ± 0.02 | 0.15 ± 0.03 | 18.4 ± 2.0 | 0.0164 ± 0.0007 µM | 0.27 | 0.0597 ± 0.0001 µM | 0.0243 ± 0.001 | – | – | –
4 | NS(=O)(=O)c1cccc(N=Cc2cccc(Cl)c2O)c1 [Compound 2, 3-((3-Chloro-2-hydroxybenzylidene)amino)benzenesulfonamide] | 8.2 ± 0.4 | 0.26 ± 0.04 | 0.27 ± 0.02 | 15.1 ± 1.4 | 0.0138 ± 0.0001 µM | 0.21 | 0.0666 µM and 0.0665 µM | 0.021 | – | – | –
5 | NS(=O)(=O)c1ccc(N=Cc2cccc(Br)c2O)cc1 [Compound 3, 4-((3-Bromo-2-hydroxybenzylidene)amino)benzenesulfonamide] | 5.9 ± 0.4 | 0.28 ± 0.04 | 0.11 ± 0.01 | 7.3 ± 0.6 | 0.0263 ± 9e-05 µM | 0.33 | 0.0805 ± 0.0015 µM | 0.0349 ± 0.0014 | – | – | –
6 | NS(=O)(=O)c1ccc(N=Cc2cccc(Cl)c2O)cc1 [Compound 4, 4-((3-Chloro-2-hydroxybenzylidene)amino)benzenesulfonamide] | 12.7 ± 0.9 | 0.24 ± 0.05 | 0.33 ± 0.02 | 14.7 ± 0.9 | 0.0793 ± 0.0002 µM | 1.98 | 0.0401 ± 0.0006 µM | 0.0279 ± 0.0013 | – | – | –
7 | NS(=O)(=O)c1cccc(NCc2cccc(Br)c2O)c1 [Compound 5, 3-((3-Bromo-2-hydroxybenzyl)amino)benzenesulfonamide] | 1.9 ± 0.09 | 0.99 ± 0.07 | 0.33 ± 0.03 | 76.8 ± 8.1 | 0.0198 ± 0.0012 µM | 0.38 | 0.0521 ± 0.0007 µM | 0.0612 ± 0.004 | – | – | –
8 | NS(=O)(=O)c1cccc(NCc2cccc(Cl)c2O)c1 [Compound 6, 3-((3-Chloro-2-hydroxybenzyl)amino)benzenesulfonamide] | 9.2 ± 0.6 | 0.93 ± 0.07 | 0.47 ± 0.06 | 77.7 ± 7.9 | 0.0291 ± 0.0003 µM | 0.29 | 0.101 ± 0.0019 µM | 0.0257 ± 0.001 | – | – | –
9 | NS(=O)(=O)c1ccc(NCc2cccc(Br)c2O)cc1 [Compound 7, 4-((3-Bromo-2-hydroxybenzyl)amino)benzenesulfonamide] | 4.2 ± 0.4 | 1.15 ± 0.08 | 0.39 ± 0.04 | 74.5 ± 6.4 | – | 0.16 | 0.0623 µM | – | 0.0101 | 0.077 ± 0.0093 | –
10 | NS(=O)(=O)c1ccc(NCc2cccc(Cl)c2O)cc1 [Compound 8, 4-((3-Chloro-2-hydroxybenzyl)amino)benzenesulfonamide] | 3.2 ± 0.6 | 0.80 ± 0.05 | 0.33 ± 0.07 | 78.4 ± 7.7 | 0.062 µM and 0.0619 µM | 1.93 | – | – | – | 0.0314 ± 0.0012 | 0.0321
11 | Cc1c(C)c2c(c(C)c1O)CCC(C)(C(=O)O)O2 (stereo not shown) [Trolox, reference compound] | 57.8 ± 6.8 | 1.81 ± 0.05 | 1.27 ± 0.12 | 94.4 ± 9.0 | – | – | – | – | – | – | –
